Test results as given in patent publication US20230391776A1, “AMIDE OXAZOLE COMPOUND” (MEDSHINE DISCOVERY INC., priority 2020, published 2023).
Values joined by “and” are separate entries in the source; they are usually repeats but may differ in a detail not shown here. Identical values can stand only once.

Key:
[1] = system: TNF-α production in THP-1 cells; assay: TNF-α ELISA in LPS-stimulated THP-1 cells; type: cell-based; settings: Homo sapiens, TNF-α in supernatant, 150 ng/mL LPS, 18 hours
Method: THP-1 human acute single cell leukemia cells were purchased from ATCC (Cat #TIB-202) and cultured at 37° C. in 5% CO2 incubator. The composition of medium was RPMI1640 (Gibco, Cat #22400-105), and the supplementary compositions were 10% FBS (Gibco, Cat #10091148); 1% PenStrep (Gibco, Cat #15140); 0.05 mM β-mercaptoethanol (Sigma, Cat #M6250).
TNF-α Elisa kit was used to detect the content of TNF-α in cell culture supernatant samples. TNF-α was produced by stimulating THP-1 cells with 150 ng/mL LPS (Sigma, Cat #L6529).
THP-1 cells cultured normally at logarithmic growth period were seeded in a 96-well plate (Corning #3599) at a certain concentration (1*10^5/100 μL) and then put into a cell incubator for incubation. After two hours, 16.7 μL of different concentrations of the compound to be tested (8*final concentration) were added and incubated in an incubator. After one hour, 16.7 μL of 1200 ng/mL LPS was added and incubated in an incubator. After 18 hours, the culture supernatant samples were collected by centrifugation, and the content of TNF-α could be detected by TNF-α Elisa kit. Finally, OD signals (OD450-OD570) were read on envision board reader.
The OD450-OD570 signal value was converted into a percentage inhibition rate.
Inhibition rate %=(ZPE−sample)/(ZPE−HPE)*100.
“HPE” referred to the OD450-OD570 signal value of the control well without LPS stimulated cells, and “ZPE” referred to the OD450-OD570 signal value of the control well with LPS stimulated cells. The IC50 value of the compound was calculated by XLFit in the excel add-in.
Y=Bottom+(Top−Bottom)/(1+(IC50/X)^HillSlope). Equation: […]

[2] = system: TNF-α secretion induced by LPS; assay: TNF-α secretion model induced by LPS in SD rats; type: in vivo; settings: 25 mpk oral gavage 0.5 h before 1 mg/kg LPS i.p., plasma 2 hours after modeling, p<0.01
Method: a) The pharmacokinetic effect of compound WX009 on TNF-α secretion model induced by LPS in SD rats.
Female SD rats were randomly divided into four groups according to the animal weight, namely Sham group, Model group and Dexamethasone (dosage: 0.5 mpk, DEX-0.5 mpk) group and tested drug WX009 (dosage: 25 mpk, WX009-25 mpk) group, with 6-9 animals in each group. The model was established by a single intraperitoneal injection of 1 mg/kg LPS. Dexamethasone and tested drug were given orally by gavage 0.5 h before modeling. After modeling for 2 hours, the animals were weighed, and all the experimental animals were anesthetized by intraperitoneal injection of pentobarbital sodium. An anticoagulant whole blood was collected through sublingual vein, anticoagulant: EDTA-K2, the plasma was separated, and the plasma volume was about 200 μL, which was used to detect the content of inflammatory factor, TNF-α.

[3] = system: human diffuse large B lymphoma TMD8 cell subcutaneous xenograft; assay: TMD8 subcutaneous xenograft tumor model (WX009 study); type: in vivo, SCID mouse; settings: 18th day after administration
Source text: The formula for calculating the tumor inhibition rate TGI (%)=[1−(average tumor volume at the end of administration in a treatment group-average tumor volume at the beginning of administration in the treatment group))/(average tumor volume at the end of treatment in solvent control group-average tumor volume at the beginning of treatment in solvent control group)]×100%.

[4] = system: human diffuse large B lymphoma TMD8 cell subcutaneous xenograft; assay: TMD8 subcutaneous xenograft tumor model (WX017 and WX027 study); settings: 11th day after administration
Method: a) TMD8 cells were cultured in RPMI-1640 medium containing 10% FBS and maintained in a 37° C. saturated humidity incubator with 5% CO2. TMD8 cells in logarithmic period were collected, resuspended in RPMI-1640 basal medium, and Matrigel was added at 1:1, and the cell concentration was adjusted to 4×10^7/mL. Under aseptic conditions, 0.1 mL of cell suspension was inoculated under the skin of the right back of SCID mice, and the inoculation concentration was 4×10^6/0.1 mL/mouse.
When the tumor grew to a certain size, the animals with too large, too small or irregular tumor shape were excluded, and the animals with tumor volume of 108.76-188.11 mm^3 were selected. According to the tumor volume, the animals were divided into 10 groups by random block method, with 6 mice in each group, and the average tumor volume was about 152.11 mm^3. The health status and death of animals were monitored every day, and routine examinations included observing the effects of tumor growth and drug treatment on daily behaviors of animals, such as behavioral activities, food intake and water intake, weight change (weight was measured twice a week), tumor size (tumor volume was measured twice a week), appearance signs or other abnormal conditions.
The formula for calculating tumor volume (TV) was: 1/2×a×b^2, where a and b were the measured length and width of the tumor respectively. The formula for calculating the tumor inhibition rate TGI (%)=[1−(average tumor volume at the end of administration in a treatment group-average tumor volume at the beginning of administration in the treatment group))/(average tumor volume at the end of treatment in solvent control group-average tumor volume at the beginning of treatment in solvent control group)]×100%.
In this study, the experimental data were all expressed by Mean±SEM. Statistical analysis was based on the data of RTV at the end of the experiment and analyzed by IBM SPSS Statistics software. T test was used to analyze the comparison between two groups, and one-way ANOVA was used to analyze the comparison between three or more groups. If the variance was even (there was no significant difference in F value), Tukey's method was used to analyze it, and if the variance was uneven (there was significant difference in F value), Games-Howell method was used to test it. p<0.05 was deemed to a significant difference.

IC50 [1] | Compound | TNF-α content in animal plasma compared with the Model group [2] | TGI ([3]; 5 mg/kg BID PO) | TGI ([3]; 10 mg/kg BID PO) | TGI ([3]; 20 mg/kg BID PO) | TGI ([4]; 3 mg/kg BID PO) | TGI ([4]; 10 mg/kg BID PO) | TGI ([4]; 20 mg/kg BID PO)
60 nM | Cc1cc(-c2nc(C(=O)Nc3cn4cc(C(C)(C)O)nc4cc3-c3ccccc3)co2)ccn1 [WX009] | significantly reduce | 86% and 86.28% | 85.10% | 96.55% |  |  | 
15.9 nM | CC(C)(O)c1cn2cc(NC(=O)c3coc(-c4ccnc(N)c4)n3)c(-c3ccccc3)cc2n1 [WX017] |  |  |  |  | 86% | 100% | 114%
41.9 nM | CC(C)(O)c1cn2cc(NC(=O)c3coc(-c4ccnc(N)c4F)n3)c(-c3ccccc3)cc2n1 [WX027] |  |  |  |  | 78% | 90% | 104%
